Among the test systems are SN12C; SF-295; K562; SF-268; SK-OV-3; ACHN; SNB-19; SR; A498; OVCAR-5; COLO 205; HOP-92; MOLT-4; NCI-H522; U-251; HCT-15; NCI-H460.
Holding throughout (assay): inhibition of tumour cell growth, NCI panel, 48 h

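1) Cells in 96-well plates. 2) Compound, 48 h, 5 concentrations. 3) Linear interpolation between surrounding doses. 4) Unreached endpoint = highest concentration. Abbreviation: GI50, concentration required for 50% inhibition of growth.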 Calls of active or inactive are those of the source. No stated cut-off is given here; in the data, active = GI50 up to about 1.1 µM and inactive = higher.

Regarding `N/N=C(/Cc1nc2ccc(C(=O)c3ccccc3)cc2nc1O)C(=O)Nc1ccc([N+](=O)[O-])cc1[N+](=O)[O-]`, the GI50 in the assay with SN12C was > 10 µM (inactive); in the assay with SF-295 it was > 10 µM (inactive); in the assay on K562, > 10 µM (inactive); with SF-268, > 10 µM (inactive); with SK-OV-3, 55.7 µM (inactive); in the assay on ACHN it was > 10 µM (inactive). The GI50 with SNB-19 was > 100 µM (inactive); in the assay on SR, > 10 µM (inactive); in the assay on A498, > 10 µM (inactive); in the assay on OVCAR-5, > 10 µM (inactive); in the assay on COLO 205, > 10 µM (inactive); in the assay on HOP-92, > 10 µM (inactive). Besides, the GI50 in the assay with MOLT-4 is > 10 µM (inactive); in the assay on NCI-H522 it was > 10 µM (inactive); in the assay with U-251 it was > 10 µM (inactive); in the assay on HCT-15 it was above 10 µM; in the assay with NCI-H460 it was > 10 µM (inactive).

As for `O=[N+]([O-])c1cc(I)cc(/C=N/NS(=O)(=O)c2ccc(Cl)cc2)c1O`, the GI50 with SN12C is 23.7 µM (inactive); in the assay on SF-295 it was 25.6 µM (inactive); with K562, 20 µM (inactive); with SF-268, 36.9 µM (inactive); in the assay with SK-OV-3, 24.7 µM (inactive); in the assay on ACHN, 22.8 µM (inactive). For the same compound, the GI50 with SNB-19 is 29.9 µM (inactive); with SR, 21.4 µM (inactive); with A498, 22.9 µM (inactive); with OVCAR-5, 25 µM (inactive); with COLO 205, 18.9 µM (inactive); in the assay with HOP-92 it was 20.5 µM (inactive). Also, the GI50 with MOLT-4 is 19.5 µM (inactive); in the assay with NCI-H522 it was 16.9 µM (inactive); with U-251 it was 18.7 µM (inactive); in the assay on HCT-15, 20.4 µM; in the assay with NCI-H460, 19.9 µM (inactive).

Turning to `c1nc2cscc2c2cscc12`, the GI50 was > 100 µM (inactive) in the assay with SN12C; > 100 µM (inactive) with SF-295; > 100 µM (inactive) with K562; > 100 µM (inactive) in the assay with SF-268; 37 µM (inactive) in the assay with SK-OV-3; > 100 µM (inactive) in the assay on ACHN. Moreover, the GI50 in the assay with SNB-19 is > 100 µM (inactive); in the assay on SR it was > 100 µM (inactive); in the assay on A498 it was > 100 µM (inactive); in the assay on OVCAR-5, > 100 µM (inactive); in the assay with HOP-92, 14.7 µM (inactive); with MOLT-4, > 100 µM (inactive). Also, the GI50 was > 100 µM (inactive) in the assay with NCI-H522, > 100 µM (inactive) in the assay on U-251, above 100 µM in the assay on HCT-15 and > 100 µM (inactive) in the assay with NCI-H460.

With `C/C(=N\NC(N)=O)c1sc(-c2nc(C)c(/C(C)=N/NC(N)=O)s2)nc1C`, the GI50 was > 100 µM (inactive) in the assay with SN12C; > 100 µM (inactive) in the assay on SF-295; 53.8 µM (inactive) in the assay on K562; > 100 µM (inactive) with SF-268; > 100 µM (inactive) with SK-OV-3; > 100 µM (inactive) with ACHN. Further, the GI50 in the assay on SNB-19 is > 100 µM (inactive); in the assay with SR, 22.6 µM (inactive); in the assay with A498 it was > 100 µM (inactive); in the assay on OVCAR-5, > 100 µM (inactive); with COLO 205, 53.6 µM (inactive); with HOP-92 it was > 100 µM (inactive). In addition, the GI50 was > 100 µM (inactive) in the assay with MOLT-4; 70.5 µM (inactive) with NCI-H522; 99.3 µM (inactive) in the assay on U-251; 21.9 µM in the assay on HCT-15; 78.7 µM (inactive) with NCI-H460.

For `COC(=O)NC(=O)c1cn(C2CCCCC2)c(=O)[nH]c1=O`, the GI50 with SN12C, in the assay with SF-295, in the assay with K562, in the assay on SF-268, in the assay with SK-OV-3 and in the assay on ACHN was > 100 µM (inactive) throughout. For the same compound, the GI50 in the assay with SNB-19, in the assay on SR, in the assay on A498, with OVCAR-5, in the assay on COLO 205 and in the assay with HOP-92 was > 100 µM (inactive) in each case. For the same compound, the GI50 in the assay on MOLT-4 was > 100 µM (inactive); in the assay on NCI-H522, > 100 µM (inactive); with U-251, > 100 µM (inactive); in the assay on HCT-15 it was above 100 µM; with NCI-H460 it was > 100 µM (inactive).

`CC(=O)O[C@]1(C)CCC2C(C)C(=O)OC2C2C(C)[C@@H](O)CC21` (stereo partly specified): the GI50 in the assay on SN12C is 35.6 µM (inactive); with SF-295, 72.3 µM (inactive); with K562, 17.1 µM (inactive); in the assay on SF-268 it was 33.3 µM (inactive); with SK-OV-3, 49.9 µM (inactive); in the assay on ACHN it was 29.3 µM (inactive). Also, the GI50 in the assay with SNB-19 was 28.3 µM (inactive); in the assay on SR it was 3.56 µM (inactive); with A498, 19.8 µM (inactive); in the assay with OVCAR-5 it was 29.8 µM (inactive); in the assay with COLO 205 it was 20 µM (inactive); in the assay on HOP-92, 26.4 µM (inactive). Moreover, the GI50 in the assay on NCI-H522 was 13.1 µM (inactive); in the assay on U-251, 30.1 µM (inactive); in the assay with HCT-15, 18.1 µM; in the assay with NCI-H460, 66.5 µM (inactive).

For the compound `COc1ccccc1/C=C(\C#N)C(=O)c1ccccc1`, the GI50 in the assay on SN12C, with SF-295, in the assay on K562, in the assay on SF-268, with SK-OV-3 and with ACHN was > 100 µM (inactive) in each case. Moreover, the GI50 in the assay on SNB-19, in the assay on SR, with A498, in the assay on OVCAR-5, with COLO 205 and in the assay on HOP-92 was > 100 µM (inactive) in each case. Also, the GI50 with MOLT-4 was > 100 µM (inactive); in the assay with NCI-H522, > 100 µM (inactive); with U-251, > 100 µM (inactive); in the assay on HCT-15, above 100 µM; in the assay on NCI-H460, > 100 µM (inactive).

Turning to `CCOC(=O)c1oc2c(OC)cc(Cl)c3c2c1CCC3`, the GI50 is 64.7 µM (inactive) in the assay on SN12C; 58.1 µM (inactive) in the assay with SF-295; > 100 µM (inactive) in the assay with K562; > 100 µM (inactive) in the assay with SF-268; 50.8 µM (inactive) with SK-OV-3; 30.3 µM (inactive) in the assay with ACHN. Further, the GI50 with SNB-19 is 31.5 µM (inactive); with SR it was > 100 µM (inactive); in the assay with A498, 69.8 µM (inactive); with OVCAR-5, > 100 µM (inactive); with COLO 205, > 100 µM (inactive); with HOP-92 it was 20.7 µM (inactive). Besides, the GI50 was > 100 µM (inactive) in the assay on MOLT-4; 29.2 µM (inactive) in the assay on NCI-H522; 45 µM (inactive) with U-251; above 100 µM in the assay with HCT-15; > 100 µM (inactive) in the assay on NCI-H460.

As for `O=c1c2c(nc3n1CCC3)sc1c(O)c(Br)ccc12`, the GI50 with SN12C was 16.4 µM (inactive); in the assay with SF-295 it was 17.3 µM (inactive); in the assay with K562, 19.3 µM (inactive); with SF-268, 60.4 µM (inactive); in the assay with SK-OV-3, 23.9 µM (inactive); in the assay with ACHN it was 14.6 µM (inactive). The GI50 in the assay on SNB-19 was 54.7 µM (inactive); in the assay with SR, 12.1 µM (inactive); with A498, 10.5 µM (inactive); in the assay on OVCAR-5, 20.7 µM (inactive); in the assay on COLO 205, 11.8 µM (inactive); in the assay on HOP-92, > 100 µM (inactive). Moreover, the GI50 in the assay with MOLT-4 is 11.1 µM (inactive); in the assay on NCI-H522, 16 µM (inactive); in the assay on U-251, 20.2 µM (inactive); in the assay with HCT-15 it was 18.6 µM; in the assay with NCI-H460 it was 16.4 µM (inactive).

These data come from ChEMBL document CHEMBL1201862, “PubChem BioAssay data set” (2004).
